Experimental data: patent US8435982B2, “Pharmaceutical formulation containing lipophilic drugs and milk as a solubilizing/dispensing agent and method for the preparation thereof” (Pharmathen S.A., priority 2007, dated 2013)
In brackets after ≈: the same amount, converted by molar mass. Where two headings read alike, the source gives them in different places. Values belong to the compound of their own block, whether it stands above or below them.

Key:
Format in all cases: physicochemical
[1] = Solubility studies in alkaline buffers; details: for solubility at 48 h: 25 °C, thermodynamic from solid
Procedure: Solubility studies were performed at 25° C. in various buffers. More specifically:
An excess quantity of mefenamic acid powder was added to a 25 ml flask containing 15 ml of the appropriate aqueous medium. The flasks were placed in a thermostated water bath at 25° C. under constant shaking rate of 100 rpm for 48 h. The filtrated samples of mefenamic acid were monitored at 285 nm. Calibration curves were performed for every buffer, prior to measurements.

[2] = Final pH of drug-buffer solution solubilized/dispersed in milk
Procedure: The appropriate buffer was added in milk gradually under magnetic stirring and the increase of the milk pH was measured. […] Subsequently, experiments were performed in order to evaluate if an active ingredient initially dissolved in buffer, when solubilized/dispersed in milk, is suitable for oral administration. […] The buffer volume was increased by 0.5 ml each time and the pH values after each addition were measured.

[3] = Stability studies of NSAID alkaline buffer solutions; details: for total amount of drug compared to the initial value: alkaline buffer solution pH 12
Procedure: The drugs were dissolved in the following buffers: 0.2 M NaH2PO4—NaOH pH 12 and 0.05 M glycine-NaOH pH 12. A weighted amount of drug, corresponding to its therapeutic dose, was dissolved in the appropriate volume of alkaline buffer. […] Also, the pH values of the aqueous alkaline NSAIDs solutions were measured before storage and at the predetermined time points.

Compound: Cc1cnc(NC(=O)C2=C(O)c3ccccc3S(=O)(=O)N2C)s1 [Meloxicam]
solubility at 48 h ([1]; aqueous buffer, buffer glycine/NaOH at nominal pH=12, read-out: solubility): 15.4 mg/mL (≈ 43.8 mM)

Compound: CN1C(C(=O)Nc2ccccn2)=C(O)c2sccc2S1(=O)=O [Tenoxicam]
solubility at 48 h ([1]; phosphate buffer, aqueous buffer, buffer 0.1M NaH2PO4/NaOH at nominal pH=12, read-out: solubility): 14.3 mg/mL (≈ 42.5 mM)

Further lines, results first:

solubility (FIG. 1) ([1]; 25° C., nominal pH range of 11-12, 0.2M NaH2PO4—NaOH buffer): greatly enhanced | Final pH ([2]; dose 50 mg, 10 mg/mL, 5 mL NaH2PO4/NaOH 0.2M (nominal pH=12) in 150 ml […] fat long duration milk): 6.81 | Final pH ([2]; dose 100 mg, 10 mg/mL, 10 mL NaH2PO4/NaOH 0.2M (nominal pH=12) in 150 ml […] fat long duration milk): 7.01 | Final pH ([2]; dose 500 mg, 25 mg/mL, 20 mL NaH2PO4/NaOH 0.2M (nominal pH=12) in 150 ml […] fat long duration milk): 7.73 | Final pH ([2]; dose 500 mg, 40 mg/mL, 12.5 mL NaH2PO4/NaOH 0.2M (nominal pH=12) in 150 ml […] fat long duration milk): 7.35
Compound: Cc1cccc(Nc2ccccc2C(=O)O)c1C [Mefenamic acid]

total amount of drug compared to the initial value ([3]; accelerated stability studies, 30° C.): 99.7-100.2% | total amount of drug compared to the initial value ([3]; accelerated stability studies, 40° C.): 101-118% | change of pH (compared to the initial value) ([3]; both long term and accelerated studies, all three temperatures): 98.8-100.2% | % change of drug amount ([3]; long term and accelerated stability studies): within acceptable ranges | total amount of drug compared to the initial value ([3]; long term studies at 25° C. (3 and 6 months)): 96.5-107%
Compound: CS(=O)(=O)Nc1ccc([N+](=O)[O-])cc1Oc1ccccc1 [Nimesulide]

solubility at 48 h ([1]; pH 12, aqueous buffer): 35.1 mg/mL (≈ 134 mM) | Final pH ([2]; dose 100 mg, 10 mg/mL, 10 mL NaH2PO4/NaOH 0.2M (nominal pH=12) in 150 ml […] fat long duration milk (tolfenamic acid)): 7.42 | Final pH ([2]; dose 100 mg, 20 mg/mL, 5 mL NaH2PO4/NaOH 0.1M (nominal pH=12) in 150 ml […] fat long duration milk): 6.75 | Final pH ([2]; dose 100 mg, 20 mg/mL, 5 mL NaH2PO4/NaOH 0.2M (nominal pH=12) in 150 ml […] fat long duration milk): 7.03 | Final pH ([2]; dose 200 mg, 20 mg/mL, 10 mL NaH2PO4/NaOH 0.2M (nominal pH=12) in 150 ml […] fat long duration milk): 7.34 | Final pH ([2]; dose 300 mg, 25 mg/mL, 12 mL NaH2PO4/NaOH 0.2M (nominal pH=12) in 150 ml […] fat long duration milk): 7.40
Compound: Cc1c(Cl)cccc1Nc1ccccc1C(=O)O [Tolfenamic acid]
